Experimental data taken from patent publication US10271557B2, “Composition comprising a bacteriocin and an extract from a plant of the Labiatae family” (DUPONT NUTRITION BIOSCIENCES APS, priority 2003, dated 2019).

Assays:
[1] = test system: Listeria monocytogenes and B. cereus strains; experiment: In vitro synergy with nisin in Bioscreen, 24 h at 30° C.; type: cell-based, Listeria monocytogenes; Bacillus cereus; settings: combined with nisin
Experimental: Growth curves of Listeria monocytogenes and B. cereus strains in laboratory media were analysed as described above using the Bioscreen C analyser. Minimal inhibitory concentrations (MIC) were determined for the test compounds used singly or in combination after 24 h at 30° C. […] These had been prepared by selected extraction with either organic solvents or CO2 to obtain extracts containing 28% phenolic diterpenes (28RE; Danisco) and a rosemary extract containing 6% rosmarinic acid (6RA; Danisco).

B. cereus Campden spores = experiment: MIC in Bioscreen after 24 h at 30° C. in laboratory medium; type: cell-based, Bacillus cereus; settings: alone
Experimental: (§1) A 100,000 ppm GRE09 solution was prepared in water and filter sterilised (0.2 μm). Further dilutions were prepared in sterile deionised water at 1,250-20,000 ppm. Brain Heart Infusion broth (Oxoid) was prepared and GRE09 stock solutions were added to give the following test solutions of GRE09; 125, 250, 500, 750, 1000, 1250, 1500, 2000 ppm. […] A fully automated microbial growth analyser was used to determine microbial growth curves (Microbiology Reader Bioscreen C analyser linked to a PC with installed software BioLink v 5.30; Labsystem Oy, Finland). Tests were prepared in honeycomb 2 (HC 2) microtitre/cuvette plates with a capacity of 100 wells per plate. The wells were loaded with 270 μl of the prepared media and inoculated at a level of 10^3 CFU (colony forming units)/ml with 30 μl of microbial suspension. Incubation time and temperature was as appropriate for the test organism. This test allowed suitable test levels for the compounds to be determined. The rosemary extract and nisin were then tested in combination, using the same procedure. […] GRE09 solutions were prepared at 250, 500 and 1000 ppm as above. Combinations of all these test levels were prepared and tested in the Bioscreen as before.
(§2) Growth curves of Listeria monocytogenes and B. cereus strains in laboratory media were analysed as described above using the Bioscreen C analyser. […]

[2] = test system: Listeria monocytogenes strains 272, CRA3930 and NCTC12426; experiment: Kill of Listeria in chicken soup at 20° C. with nisin and rosemary extract components; type: cell-based; settings: FIGS. 4 and 5
Experimental: The chicken soup model was used as before. The following samples were tested: GRE09, deodorised rosemary extracts containing 28% or 70% phenolic diterpenes (RE28 and RE70; Danisco), a water soluble rosemary extract containing 6% rosmarinic acid (6RA; Danisco) and pure rosmarinic acid (RA; Sigma). Additions to the soup were made as appropriate. The soup was pasteurised (70° C./2 minutes), the pH recorded and the soup was then inoculated with a cocktail of Listeria cells prepared as described before. The tests were incubated at 20° C. and viable count enumeration performed after 0, 2, 4 and 24 h at 20° C. Initial Listeria levels were 1.3×10^5 CFU/ml. The test was repeated at two nisin levels and over different time periods. The pH of the soup without addition was pH 6.06-6.20.

[3] = test system: L. monocytogenes strain S23; experiment: MIC in Bioscreen after 24 h at 30° C. in laboratory medium; type: cell-based, Listeria monocytogenes; settings: alone
Experimental: as §1, §2

| SMILES | effect of the substance on nisin activity (synergy) in laboratory medium [1] | MIC in Bioscreen after 24 h at 30° C., individual components (B. cereus Campden spores) [% RA] | synergy with nisin in achieving kill of Listeria cells [2] | MIC in Bioscreen after 24 h at 30° C., individual components [3] [% RA] |
| --- | --- | --- | --- | --- |
| CC(O)CO (centres unmarked) [propylene glycol] | did not enhance nisin activity |  |  |  |
| O=C(/C=C/c1ccc(O)c(O)c1)O[C@H](Cc1ccc(O)c(O)c1)C(=O)O [RA, rosmarinic acid] | Enhanced nisin activity | 1 | evident but not as strong | 1 |
